Laboratory results taken from ChEMBL document CHEMBL1138700, “3-O-Glutaryl-dihydrobetulin and related monoacyl derivatives as potent anti-HIV agents” (Bioorg Med Chem Lett, 2004).

How the values were obtained:
[1] = test system: H9; test: Concentration required to produce 50% toxicity against mock-infected H9 cells; type: functional, cell-based; settings: Homo sapiens
[2] = test system: Human immunodeficiency virus 1; test: Concentration required to inhibit 50% of HIV-1 (human immunodeficiency virus-1) replication; No suppression at concentrations up to 100 ug/mL.; type: functional, organism-based
[3] = test system: Human immunodeficiency virus 1; test: Concentration required to inhibit 50% of HIV-1 (human immunodeficiency virus-1) replication; type: functional, organism-based
[4] = Therapeutic index expressed as ratio of IC50 for 50% toxicity to EC50 for 50% inhibition; type: cell-based; settings: human, H9 cells; read-out: TI

C=C(C)[C@@H]1CC[C@]2(CO)CC[C@]3(C)[C@H](CC[C@@H]4[C@@]5(C)CC[C@H](OC(=O)CCC(=O)O)C(C)(C)[C@@H]5CC[C@]43C)[C@@H]12
IC50 [1]: 26000 nM | EC50 [2]: No suppression

C=C(C)[C@@H]1CC[C@]2(COC(=O)C(C)(C)CC(=O)O)CC[C@]3(C)[C@H](CC[C@@H]4[C@@]5(C)CC[C@H](OC(=O)CC(C)(C)C(=O)O)C(C)(C)[C@@H]5CC[C@]43C)[C@@H]12
EC50 [3]: 0.87 nM | selectivity ratio [4]: 42400

CC(C)[C@@H]1CC[C@]2(CO)CC[C@]3(C)[C@H](CC[C@@H]4[C@@]5(C)CC[C@H](OC(=O)CC(C)(C)CC(=O)O)C(C)(C)[C@@H]5CC[C@]43C)[C@@H]12
EC50 [3]: 1.3 nM | IC50 [1]: 25700 nM | selectivity ratio [4]: 19500

C=C(C)[C@@H]1CC[C@]2(C(=O)O)CC[C@]3(C)[C@H](CC[C@@H]4[C@@]5(C)CC[C@H](O)C(C)(C)[C@@H]5CC[C@]43C)[C@@H]12 [BETULINIC ACID]
EC50 [3]: 1400 nM | selectivity ratio [4]: 9.2

C=C(C)[C@@H]1CC[C@]2(COC(=O)CC(C)(C)CC(=O)O)CC[C@]3(C)[C@H](CC[C@@H]4[C@@]5(C)CC[C@H](OC(=O)CC(C)(C)CC(=O)O)C(C)(C)[C@@H]5CC[C@]43C)[C@@H]12
EC50 [3]: 0.66 nM | selectivity ratio [4]: 21500

C=C(C)[C@@H]1CC[C@]2(CO)CC[C@]3(C)[C@H](CC[C@@H]4[C@@]5(C)CC[C@H](OC(=O)CC(C)(C)CC(=O)O)C(C)(C)[C@@H]5CC[C@]43C)[C@@H]12
EC50 [3]: 4.4 nM | IC50 [1]: 28900 nM | selectivity ratio [4]: 6570

C=C(C)[C@@H]1CC[C@]2(CO)CC[C@]3(C)[C@H](CC[C@@H]4[C@@]5(C)CC[C@H](OC(=O)CC(C)(C)C(=O)O)C(C)(C)[C@@H]5CC[C@]43C)[C@@H]12
EC50 [3]: 5.6 nM | IC50 [1]: 33500 nM | selectivity ratio [4]: 5970

C=C(C)[C@@H]1CC[C@]2(C(=O)O)CC[C@]3(C)[C@H](CC[C@@H]4[C@@]5(C)CC[C@H](OC(=O)CC(C)(C)C(=O)O)C(C)(C)[C@@H]5CC[C@]43C)[C@@H]12 [BEVIRIMAT]
EC50 [3]: < 0.35 nM | selectivity ratio [4]: > 20000

CC(C)[C@@H]1CC[C@]2(CO)CC[C@]3(C)[C@H](CC[C@@H]4[C@@]5(C)CC[C@H](OC(=O)CCCC(=O)O)C(C)(C)[C@@H]5CC[C@]43C)[C@@H]12
EC50 [3]: 0.02 nM | IC50 [1]: 23600 nM | selectivity ratio [4]: 1.12e+06

CC(C)[C@@H]1CC[C@]2(CO)CC[C@]3(C)[C@H](CC[C@@H]4[C@@]5(C)CC[C@H](OC(=O)CC(C)(C)C(=O)O)C(C)(C)[C@@H]5CC[C@]43C)[C@@H]12
EC50 [3]: 1.7 nM | IC50 [1]: 27000 nM | selectivity ratio [4]: 16200

C=C(C)[C@@H]1CC[C@]2(CO)CC[C@]3(C)[C@H](CC[C@@H]4[C@@]5(C)CC[C@H](OC(=O)CCCC(=O)O)C(C)(C)[C@@H]5CC[C@]43C)[C@@H]12
EC50 [3]: 60 nM | IC50 [1]: 44400 nM | selectivity ratio [4]: 670

C=C(C)[C@@H]1CC[C@]2(CO)CC[C@]3(C)[C@H](CC[C@@H]4[C@@]5(C)CC[C@H](OC(=O)COCC(=O)O)C(C)(C)[C@@H]5CC[C@]43C)[C@@H]12
EC50 [3]: 20 nM | IC50 [1]: > 44800 nM | selectivity ratio [4]: > 1820

Cc1cn([C@H]2C[C@H](N=[N+]=[N-])[C@@H](CO)O2)c(=O)[nH]c1=O [ZIDOVUDINE]
EC50 [3]: 6.2 nM
